# Source: PubChem BioAssay (NCI)
#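 Following 48 hours of exposure in 96-well plates, responses at five concentrations were used to interpolate endpoints linearly. The concentration for 50% growth inhibition is given as GI50. The concentration for full growth arrest is given as TGI.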
# Legend:
# Assay in all cases: inhibition of tumour cell growth, NCI panel, 48 h
# [1] = tested on: MDA-MB-231 breast
# [2] = tested on: OVCAR-8 ovarian
# [3] = tested on: RXF 393 renal
# [4] = tested on: SW-620 colon
# [5] = tested on: SK-OV-3 ovarian
# [6] = tested on: NCI/ADR-RES ovarian
# [7] = tested on: K-562 leukemia
# [8] = tested on: HCT-15 colon
# [9] = tested on: UO-31 renal
# [10] = tested on: SNB-75 CNS
# [11] = tested on: HOP-92 NSCLC
# [12] = tested on: 786-0 renal
# [13] = tested on: NCI-H460 lung
# [14] = tested on: HCT-116 colon
# [15] = tested on: SK-MEL-2 melanoma
# [16] = tested on: M14 melanoma
# [17] = tested on: MDA-MB-468 breast
# [18] = tested on: HS 578T breast
# [19] = tested on: T-47D breast
# [20] = tested on: ACHN renal
# [21] = tested on: HL-60(TB) leukemia
# [22] = tested on: MOLT-4 leukemia
# [23] = tested on: MALME-3M melanoma
# [24] = tested on: BT-549 breast
# [25] = tested on: U251 CNS
# [26] = tested on: SF-539 CNS
# [27] = tested on: SN12C renal
# [28] = tested on: SK-MEL-5 melanoma
# [29] = tested on: OVCAR-3 ovarian
# [30] = tested on: PC-3 prostate
# [31] = tested on: LOX IMVI melanoma
# [32] = tested on: A498 renal
# [33] = tested on: IGROV1 ovarian
# [34] = tested on: A549 NSCLC
# [35] = tested on: NCI-H23 lung
# [36] = tested on: COLO 205 colon
# [37] = tested on: SF-295 CNS
# [38] = tested on: OVCAR-5 ovarian
# [39] = tested on: TK-10 renal
# [40] = tested on: CAKI-1 renal
# [41] = tested on: DU-145 prostate
# [42] = tested on: SF-268 CNS
# [43] = tested on: UACC-257 melanoma
# [44] = tested on: NCI-H522 lung
# [45] = tested on: HT29 colon
# [46] = tested on: OVCAR-4 ovarian
# [47] = tested on: HCC-2998 colon
# [48] = tested on: NCI-H226 lung
# [49] = tested on: SK-MEL-28 melanoma
# [50] = tested on: EKVX NSCLC
# [51] = tested on: CCRF-CEM leukemia
# [52] = tested on: MCF7 breast
# [53] = tested on: UACC-62 melanoma
# [54] = tested on: KM12 colon
# [55] = tested on: SNB-19 CNS
# [56] = tested on: MDA-MB-435
# [57] = tested on: HOP-62 NSCLC
# [58] = tested on: RPMI-8226 leukemia
compound,measurement,setting,value
COc1ccc(-c2cc(C(=O)N=Nc3c(O)[nH]c4ccc(Br)cc34)c3ccccc3n2)cc1,GI50,[1],6.94 µM
same,TGI,[1],22.9 µM
same,GI50,[2],12.3 µM
same,TGI,[2],31.4 µM
same,GI50,[3],10 µM
same,TGI,[3],22.6 µM
same,GI50,[4],2.28 µM
same,TGI,[4],6.83 µM
same,GI50,[5],16.1 µM
same,TGI,[5],34.8 µM
same,GI50,[6],8.75 µM
same,TGI,[6],33.9 µM
same,GI50,[7],4.28 µM
same,TGI,[7],> 100 µM
same,GI50,[8],3.23 µM
same,TGI,[8],11.9 µM
same,GI50,[9],12.5 µM
same,TGI,[9],25 µM
same,GI50,[10],14.1 µM
same,TGI,[10],37.9 µM
same,GI50,[11],13.3 µM
same,TGI,[11],40.1 µM
same,GI50,[12],19.4 µM
same,TGI,[12],47.8 µM
same,GI50,[13],3.7 µM
same,TGI,[13],16.1 µM
same,GI50,[14],5.55 µM
same,TGI,[14],66.4 µM
same,GI50,[15],18.2 µM
same,TGI,[15],33.9 µM
same,GI50,[16],8.54 µM
same,TGI,[16],44.4 µM
same,GI50,[17],10.4 µM
same,TGI,[17],25.3 µM
same,GI50,[18],14.3 µM
same,TGI,[18],55.1 µM
same,GI50,[19],19.8 µM
same,TGI,[19],65.8 µM
same,GI50,[20],11.1 µM
same,TGI,[20],24.1 µM
same,GI50,[21],24.7 µM
same,TGI,[21],> 100 µM
same,GI50,[22],5.08 µM
same,TGI,[22],> 100 µM
same,GI50,[23],15.6 µM
same,TGI,[23],34.9 µM
same,GI50,[24],27.8 µM
same,TGI,[24],48.5 µM
same,GI50,[25],3.4 µM
same,TGI,[25],> 100 µM
same,GI50,[26],15.6 µM
same,TGI,[26],29.7 µM
same,GI50,[27],14.9 µM
same,TGI,[27],30.3 µM
same,GI50,[28],15.8 µM
same,TGI,[28],31.8 µM
same,GI50,[29],12.3 µM
same,TGI,[29],36.1 µM
same,GI50,[30],8.46 µM
same,TGI,[30],> 100 µM
same,GI50,[31],3.33 µM
same,TGI,[31],12.3 µM
same,GI50,[32],20.8 µM
same,TGI,[32],36.8 µM
same,GI50,[33],11.2 µM
same,TGI,[33],25.9 µM
same,GI50,[34],9.06 µM
same,TGI,[34],51.6 µM
same,GI50,[35],3.09 µM
same,TGI,[35],13.3 µM
same,GI50,[36],16.1 µM
same,TGI,[36],47.5 µM
same,GI50,[37],13.7 µM
same,TGI,[37],27.2 µM
same,GI50,[38],14.3 µM
same,TGI,[38],27.6 µM
same,GI50,[39],22 µM
same,TGI,[39],41.2 µM
same,GI50,[40],13.9 µM
same,TGI,[40],40.1 µM
same,GI50,[41],10.9 µM
same,TGI,[41],30.1 µM
same,GI50,[42],17.9 µM
same,TGI,[42],48.4 µM
same,GI50,[43],16.6 µM
same,TGI,[43],37.7 µM
same,GI50,[44],16.9 µM
same,TGI,[44],46.3 µM
same,GI50,[45],3.62 µM
same,TGI,[45],14.5 µM
same,GI50,[46],17.1 µM
same,TGI,[46],72.2 µM
same,GI50,[47],12.9 µM
same,TGI,[47],26.4 µM
same,GI50,[48],14.2 µM
same,TGI,[48],45.7 µM
same,GI50,[49],14.5 µM
same,TGI,[49],28.1 µM
same,GI50,[50],10.5 µM
same,TGI,[50],22.4 µM
same,GI50,[51],3.09 µM
same,TGI,[51],> 100 µM
same,GI50,[52],6.26 µM
same,TGI,[52],26.5 µM
same,GI50,[53],15.6 µM
same,TGI,[53],30.2 µM
same,GI50,[54],19 µM
same,TGI,[54],85.7 µM
same,GI50,[55],15.5 µM
same,TGI,[55],28.9 µM
same,GI50,[56],13.3 µM
same,TGI,[56],43.8 µM
same,GI50,[57],16.5 µM
same,TGI,[57],36.7 µM
same,GI50,[58],6.37 µM
same,TGI,[58],> 100 µM
